This is an account of results in patent publication US4992444A, “Antifolate agents” (priority 1986, dated 1991).

The structures appear in SMILES notation. Where two headings read alike, the source gives them in different places.

Data set [1] has as its system L1210 murine leukaemia cells. As to the kind of experiment: In vitro cytotoxicity against L1210 cells. The data set is classed as cell-based. As to conditions: Mus musculus. As for the experimental part:
In vitro cytotoxicity studies
Cells were seeded routinely every 72 hours at 10^4 cells.ml^-1 and counted as 10^6 cells.ml^-1 prior to each experiment and counts were performed following incubation (5% CO2 in air at full humidity) for 72 hours at 37° C., with the appropriate concentration of drug.

Data set [2] deals with P388 lymphocytic leukaemia. As to the kind of experiment: In vivo antitumor screening against P388 lymphocytic leukaemia in mice. The conditions noted are these: Mus musculus, P388, ip, free base, intraperitoneal, NCI protocols, read-out: Optimum T/C; for response vs control in vivo at 100 mg/kg: optimum dose 100 mg/kg; for response vs control in vivo at 240 mg/kg: optimum dose 240 mg/kg; for response vs control in vivo at 200 mg/kg: optimum dose 200 mg/kg.
Description: ^a All compounds administered to mice as free bases via
intraperitoneal route according to NCI protocols.

Another data set has as its target T1, rat liver DHFR (Rattus norvegicus, UniProt Q920D2).
T1 construct: from tissue; host or cells: liver of male Wistar rats; homogenate supernatant, pH 5.1 step, dialysed, partially purified
T1 sequence (Q920D2 1-187): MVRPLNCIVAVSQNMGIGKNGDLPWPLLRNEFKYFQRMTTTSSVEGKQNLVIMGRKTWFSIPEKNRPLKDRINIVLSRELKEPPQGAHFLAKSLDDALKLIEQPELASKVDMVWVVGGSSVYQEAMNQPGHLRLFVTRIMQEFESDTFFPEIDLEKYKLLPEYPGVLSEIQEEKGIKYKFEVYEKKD
As to the kind of experiment: Inhibition of rat liver DHFR (spectrophotometric assay; I50 and Ki). Type of data set: biochemical. As for the experimental part: All solutions were prepared on the day previous to the experiment and stored in the dark at 4° C. prior to use.
The stock solutions were diluted, as necessary, immediately before use to produce the required inhibitor concentration.
B.1 Preparation of partially purified DHFR
All further manipulations were performed at 4° C.: the livers (30.7 g) were transferred to a Waring blender to which approximately 8 volumes of water was added (final volume c.a. 300 ml), whereupon the mixture was homogenised for 2 minutes for periods of 30s, allowing 30s between each run to minimise heating. Liver homogenate was centrifuged at approximately 20,000 g for 20 minutes and the pellet was discarded. The supernatant liquid was adjusted to pH 5.1 with dilute acetic acid (1.0 M initially and 0.1 M finally) and after centrifugation at 27,000 g for a further 20 minutes, the clear wine-red solution was transferred to visking tubing (2.5 cm diameter) and dialysed for 12 hours against 0.01 sodium acetate buffer solution. The dialysate was examined and if turbid, centrifuged again at 27,000 g for 20 minutes. The clear preparation was transferred to sterile plastic stoppered tubes (10 ml) and stored at -10° C. prior to use.
B.2. Preparation of reagent solutions
The buffer was kept at 4° C. to prevent bacterial growth and discarded after 3 days.
The solution was maintained at 0° C.
An aqueous solution of NADPH (2 mg.ml^-1, 2.0 mM) was prepared immediately prior to use and again maintained at 0° C.
B.3 Assay for inhibitor activity
Plastic disposable cuvettes were used throughout.
The assay was carried out as follows: NADPH (0.1 ml) and the enzyme preparation (0.1 ml) were incubated at 30° C. for 5 minutes in phosphate buffer (total volume 1.9 ml).
Reference cuvettes were set up containing NADPH, buffer, inhibitor if appropriate and dihydrofolate, but without enzyme (Table A).
Enzyme activity was estimated from the slope of the change of absorbance with time and this was arbitrarily designated as 100% for the uninhibited enzyme.
The remaining inhibitors were selected for I50 determinations and inhibitory activity was evaluated in duplicate at a minimum of four inhibitor concentrations, from which the I50 value was determined by a graphical method.
Compounds selected for inhibition constant (KI) determinations were assayed following an identical method to that described above except that inhibitory activity was measured at a minimum of ten inhibitor concentrations, again in duplicate, from which the appropriate KI values were determined by a Zone B analysis.

Data set [3] relates to M5076 reticulum cell sarcoma. Type of data set: in vivo. The conditions noted are these: for Death: mouse, in vivo.
Description: Tumor: implanted intramuscularly on day 1
Drug: in 10% DMSO/arachis oil administered daily for
17 days by intraperitoneal route.
*Test/Control assessed at day 24
The mark [4] stands for this setting: Table IV, 72 hours, read-out: IC50 (L1210 cells).
[5] abbreviates: Table I, solvent B = 0.1 M hydrochloric acid, read-out: I50, inhibition of rat liver DHFR.
[6] abbreviates: Table III, drug concentration necessary to reduce the 72 hour cell count to 50% of control, read-out: IC50, cytotoxicity against L1210 cells in vitro.
Where [7] appears, read: Table IV, read-out: I50, rat liver dihydrofolate reductase.
[8] abbreviates: Table II, rat liver DHFR, 95% confidence limits, read-out: Ki.
[9] abbreviates: 0.75 mg/kg/day, Test/Control assessed at day 24, i.p.
The mark [10] stands for this setting: 3.125 mg/kg/day, Test/Control assessed at day 24, i.p.
The mark [11] stands for this setting: 6.25 mg/kg/day, Test/Control assessed at day 24, i.p.
The mark [12] stands for this setting: 12.5 mg/kg/day, Test/Control assessed at day 24, i.p.
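Wherever T/C × 100 is given: mice bearing tumor implanted intramuscularly on day 1, given compound intraperitoneally once a day for 17 days in arachis oil containing 10% DMSO.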
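Wherever Tumor volume is given: mice bearing tumor implanted intramuscularly on day 1, given compound intraperitoneally once a day for 17 days in arachis oil containing 10% DMSO.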

Take `CCc1nc(N)nc(N)c1-c1ccc(N(C)Cc2ccc(OC)cc2)c([N+](=O)[O-])c1` [Compound 17, 2,4-Diamino-6-ethyl-5-{4-[N-(4-methoxybenzyl)-N-methylamino]-3-nitrophenyl}pyrimidine]: the IC50 in data set [1] (setting [4]) was found to be 70 nM.
As to `CCc1nc(N)nc(N)c1-c1ccc(NC)c([N+](=O)[O-])c1` [Compound 1, 2,4-Diamino-5-(4-methylamino-3-nitrophenyl)-6-ethylpyrimidine], in data set [2], the response vs control in vivo at 100 mg/kg is 182%.
For `CCc1nc(N)nc(N)c1-c1ccc(OC)c([N+](=O)[O-])c1` [OMe], the IC50 on rat liver DHFR (setting [5]) worked out at 180 nM. The response vs control in vivo at 120 mg/kg in data set [2] (optimum dose 120 mg/kg) is 189%.
Take `CCc1nc(N)nc(N)c1-c1ccc(NC(C)c2ccccc2)c([N+](=O)[O-])c1` (racemic) [Compound 9, 2,4-diamino-6-ethyl-5-(4-(±)-α-methylbenzylamino-3-nitrophenyl)-pyrimidine]: the response vs control in vivo at 30 mg/kg in data set [2] (optimum dose 30 mg/kg) amounted to 132%.
On to `CCc1nc(N)nc(N)c1-c1ccc(NCc2ccccc2)c([N+](=O)[O-])c1` [Compound 5, 2,4-Diamino-5-(4-benzylamino-3-nitrophenyl)-6-ethylpyrimidine], for which the IC50 in data set [1] (setting [6]) is below 1 nM. Further, the response vs control in vivo at 240 mg/kg in data set [2] came to 126%.
`CCOc1ccc(-c2c(N)nc(N)nc2CC)cc1[N+](=O)[O-]` [OEt]: the IC50 on rat liver DHFR (setting [5]) was determined as 140 nM.
`CCc1nc(N)nc(N)c1-c1ccc(NCc2ccc(C(F)(F)F)cc2)c([N+](=O)[O-])c1` [Compound 28, 2,4-diamino-5-[3-nitro-4-(4-trifluoromethylbenzylamino)phenyl]-6-ethylpyrimidine]: the “T/C × 100” value in data set [3] (ip, 3.125 mg/kg, 576 h) is on record as 40; in data set [3] (ip, 6.25 mg/kg, 576 h) it was 20; in data set [3] (ip, 12.5 mg/kg, 576 h), 12; in data set [3] (ip, 25 mg/kg, 576 h), below 8. The Tumor volume turned out to be 454 mm^3 in data set [3] (ip, 6.25 mg/kg) and 265 mm^3 in data set [3] (ip, 12.5 mg/kg). For the same molecule, the “Death” value in data set [3] is on record as “Dead”.
On to `CCOCCOC(=O)c1ccc(CN(C)c2ccc(-c3c(N)nc(N)nc3CC)cc2[N+](=O)[O-])cc1` [Compound 16], for which the IC50 came out at 1.5 nM on rat liver DHFR (setting [7]) and 40 nM in data set [1] (setting [4]).
Regarding `CCc1nc(N)nc(N)c1-c1ccc(NCc2ccc(Cl)c(Cl)c2)c([N+](=O)[O-])c1` [Compound 23, 2,4-Diamino-5-[4-(3,4-dichlorobenzylamino)-3-nitrophenyl]-6-ethylpyrimidine], the “T/C × 100” value was 48 in data set [3] (ip, 3.125 mg/kg, 576 h); 36 in data set [3] (ip, 6.25 mg/kg, 576 h); 16 in data set [3] (ip, 12.5 mg/kg, 576 h); below 8 in data set [3] (ip, 25 mg/kg, 576 h); below 8 in data set [3] (ip, 50 mg/kg, 576 h).
A word on the Ki: it is a measure of affinity in units of concentration, obtained from inhibition or displacement. For `CCc1nc(N)nc(N)c1-c1ccc(N(CC)Cc2ccccc2)c([N+](=O)[O-])c1` [Compound 7, 2,4-Diamino-6-ethyl-5-(4-N-ethylbenzylamino-3-nitrophenyl)pyrimidine], the Ki on rat liver DHFR (setting [8]) was 0.04 ± 0.03 nM. Also, the response vs control in vivo at 200 mg/kg in data set [2] was found to be 144%.
With `CCc1nc(N)nc(N)c1-c1ccc(N(C)C)c([N+](=O)[O-])c1` [Compound 3, 2,4-Diamino-5-(4-dimethylamino-3-nitrophenyl)-6-ethylpyrimidine], the response vs control in vivo at 100 mg/kg in data set [2] worked out at 145%.
For `CCc1nc(N)nc(N)c1-c1ccc(N(C)Cc2ccccc2)c([N+](=O)[O-])c1` [Compound 6, 2,4-Diamino-6-ethyl-5-(4-N-methylbenzylamino-3-nitrophenyl)pyrimidine], in data set [2] (optimum dose 480 mg/kg), the response vs control in vivo at 480 mg/kg came out at 205%.
As for `CCc1nc(N)nc(N)c1-c1ccc(NCc2ccc(OC)cc2)c([N+](=O)[O-])c1` [Compound 18, 2,4-Diamino-6-ethyl-5-{4-[N-(4-methoxybenzyl)amino]-3-nitrophenyl}pyrimidine], the IC50 at rat liver DHFR (setting [7]) was determined as 21 nM; in data set [1] (setting [4]), 50 nM. Further, on rat liver DHFR (Table IV, read-out: Ki, rat liver dihydrofolate reductase), the Ki is 0.088 nM.
`CCc1nc(N)nc(N)c1-c1ccc(NCc2ccc(C)cc2)c([N+](=O)[O-])c1` [Compound 25, 2,4-Diamino-5-[4-(4-methylbenzylamino)-3-nitrophenyl]-6-ethylpyrimidine]: the “T/C × 100” value in data set [3] (ip, 3.125 mg/kg, 576 h) amounted to 76; in data set [3] (ip, 6.25 mg/kg, 576 h) it was 44; in data set [3] (ip, 12.5 mg/kg, 576 h), 24; in data set [3] (ip, 25 mg/kg, 576 h), 20. Besides, the “Death” value in data set [3] was “Dead”.
On to `Cc1nc(N)nc(N)c1-c1ccc(Cl)c(Cl)c1` [metoprine, reference compound], for which, in data set [2] (optimum dose 50 mg/kg), the response vs control in vivo at 50 mg/kg turned out to be 140%.
With `CCc1nc(N)nc(N)c1-c1ccc(N(C)Cc2ccc(C(=O)OC)cc2)c([N+](=O)[O-])c1` [Compound 15, 2,4-Diamino-6-ethyl-5-{4-[N-(4-methoxycarbonylbenzyl)-N-methylamino]-3-nitrophenyl}pyrimidine], in data set [1] (setting [4]), the IC50 is 100 nM.
Regarding `CCc1nc(N)nc(N)c1-c1ccc(NCCc2ccccc2)c([N+](=O)[O-])c1` [Compound 10, 2,4-Diamino-6-ethyl-5-(3-nitro-4-phenethylaminophenyl)-pyrimidine], the response vs control in vivo at 200 mg/kg in data set [2] is 142%.
For the molecule `CCCCNc1ccc(-c2c(N)nc(N)nc2CC)cc1[N+](=O)[O-]` [Compound 4, 2,4-Diamino-5-(4-n-butylamino-3-nitrophenyl)-6-ethylpyrimidine], the Ki on rat liver DHFR (Table II, rat liver DHFR, 95% confidence limits, tested as ethanesulphonate salt, read-out: Ki) came to 0.19 ± 0.05 nM. The IC50 in data set [1] (setting [6]) amounted to 200 nM. The response vs control in vivo at 240 mg/kg in data set [2] turned out to be 206%.
For the molecule `CCc1nc(N)nc(N)c1-c1ccc(N(C)Cc2ccc(C(=O)O)cc2)c([N+](=O)[O-])c1.O` [Compound 20, 2,4-Diamino-6-ethyl-5-{4-[N-(4-carboxybenzyl)-N-methylamino]-3-nitrophenyl}pyrimidine monohydrate], in data set [1] (setting [4]), the IC50 worked out at 15 nM. Moreover, the “T/C × 100” value in data set [3] (setting [9]) turned out to be 100; in data set [3] (setting [10]), 107; in data set [3] (setting [11]), 89; in data set [3] (setting [12]) it was 100.
As for `CCc1nc(N)nc(N)c1-c1ccc(N(C)Cc2ccc(C(=O)NC)cc2)c([N+](=O)[O-])c1` [Compound 19, 2,4-Diamino-6-ethyl-5-(4-{N-[4-(N-methylcarbamoyl)benzyl]-N-methylamino}-3-nitrophenyl)pyrimidine], the IC50 in data set [1] (setting [4]) worked out at 25 nM. For the same molecule, the “T/C × 100” value in data set [3] (setting [9]) was determined as 67; in data set [3] (setting [10]), 41; in data set [3] (setting [11]) it was 30; in data set [3] (setting [12]), 15. Also, the Tumor volume in data set [3] (ip, 12.5 mg/kg) turned out to be 443 mm^3.
Take `CCCCOc1ccc(-c2c(N)nc(N)nc2CC)cc1[N+](=O)[O-]` [OBu^n]: at rat liver DHFR (Table I, solvent A = water, tested as ethanesulphonate salt, read-out: I50, inhibition of rat liver DHFR), the IC50 is 60 nM. In addition, on rat liver DHFR (setting [8]), the Ki amounted to 0.08 ± 0.06 nM.
